Experimental data taken from ChEMBL document CHEMBL3885861, “Open TG-GATES”.

Organism: Rattus norvegicus
Experiment: Open TG-GATES - Regimen: Daily Repeat
Type: toxicity, organism-based, Sprague-Dawley
Parameters: regimen Daily Repeat, gender Male, age 6 weeks
Conditions: in vivo, po, route gavage; for APTT / Bas / Eos / Fbg / Hb / Ht / Lym / MCH / MCHC / MCV / Mono / Neu / PT / Plat / RBC / Ret / WBC: tissue Blood; for KIDNEY_L / KIDNEY_R / KIDNEY_TOTAL: tissue Kidney; for LIVER: tissue Liver; for A/G / ALP / ALT / AST / BUN / CRE / Ca / Cl / DBIL / GLC / IP / K / LDH / Na / PL / RALB / TBIL / TC / TG / TP / gamma-GTP: tissue Plasma
[1] = 0 mg/kg, 72 h, dose level Control, time 3 day
[2] = 0 mg/kg, […], dose level Control, time 7 day
[3] = 0 mg/kg, […], dose level Control, time 14 day
[4] = 0 mg/kg, […], dose level Control, time 28 day
[5] = 30 mg/kg, 72 h, dose level Low, time 3 day
[6] = 30 mg/kg, […], dose level Low, time 7 day
[7] = 30 mg/kg, […], dose level Low, time 14 day
[8] = 30 mg/kg, […], dose level Low, time 28 day

CCc1cc(C(N)=S)ccn1 [ETHIONAMIDE]
TERMINAL_BW [1]: 250.2 g | APTT [1]: 17.3 s | Bas [1]: 0% | Eos [1]: 1% | Fbg [1]: 262 mg/dL | Hb [1]: 13.2 g/dL | Ht [1]: 38.9% | Lym [1]: 73% | MCH [1]: 22 pg | MCHC [1]: 33.9% | MCV [1]: 64.7 fL | Mono [1]: 7.6% | Neu [1]: 18.6% | PT [1]: 11.9 s | Plat [1]: 128 x10_4/uL | RBC [1]: 601.2 x10_4/ul | Ret [1]: 12.2% | WBC [1]: 130.2 x10_2/uL | KIDNEY_L [1]: 1.1 g | KIDNEY_R [1]: 1.2 g | KIDNEY_TOTAL [1]: 2.3 g | LIVER [1]: 12.8 g | A/G [1]: 1.6 | ALP [1]: 851.8 IU/L | ALT [1]: 39 IU/L | AST [1]: 62.8 IU/L | BUN [1]: 18.2 mg/dL | CRE [1]: 0.5 mg/dL | Ca [1]: 11 mg/dL | Cl [1]: 104.6 meq/L | DBIL [1]: 0.018 mg/dL | GLC [1]: 188.6 mg/dL | IP [1]: 7.3 mg/dL | K [1]: 4.6 meq/L | LDH [1]: 80.2 IU/L | Na [1]: 141 meq/L | PL [1]: 153 mg/dL | RALB [1]: 3.6 g/dL | TBIL [1]: 0.3 mg/dL | TC [1]: 80.6 mg/dL | TG [1]: 99 mg/dL | TP [1]: 5.8 g/dL | gamma-GTP [1]: 2 IU/L | TERMINAL_BW [2]: 270.2 g | TERMINAL_BW [3]: 326.8 g | TERMINAL_BW [4]: 416.8 g | APTT [2]: 17.5 s | Bas [2]: 0% | Eos [2]: 1% | Fbg [2]: 218.4 mg/dL | Hb [2]: 14.1 g/dL | Ht [2]: 41.5% | Lym [2]: 78% | MCH [2]: 21.4 pg | MCHC [2]: 34% | MCV [2]: 62.9 fL | Mono [2]: 8% | Neu [2]: 13% | PT [2]: 11.5 s | Plat [2]: 119.6 x10_4/uL | RBC [2]: 661.6 x10_4/ul | Ret [2]: 3.8% | WBC [2]: 107.3 x10_2/uL | APTT [3]: 18.7 s | Bas [3]: 0% | Eos [3]: 1% | Fbg [3]: 215.4 mg/dL | Hb [3]: 14.8 g/dL | Ht [3]: 43.6% | Lym [3]: 79.6% | MCH [3]: 20.5 pg | MCHC [3]: 33.8% | MCV [3]: 60.8 fL | Mono [3]: 5.4% | Neu [3]: 14.2% | PT [3]: 12 s | Plat [3]: 120.6 x10_4/uL | RBC [3]: 718.8 x10_4/ul | Ret [3]: 4% | WBC [3]: 122.9 x10_2/uL | APTT [4]: 18.6 s | Bas [4]: 0% | Eos [4]: 1.6% | Fbg [4]: 235.8 mg/dL | Hb [4]: 15.6 g/dL | Ht [4]: 46% | Lym [4]: 78.8% | MCH [4]: 19.6 pg | MCHC [4]: 34% | MCV [4]: 57.7 fL | Mono [4]: 6.6% | Neu [4]: 13.2% | PT [4]: 11.9 s | Plat [4]: 116.1 x10_4/uL | RBC [4]: 796.2 x10_4/ul | Ret [4]: 4.8% | WBC [4]: 122.5 x10_2/uL | KIDNEY_L [2]: 1.2 g | KIDNEY_R [2]: 1.3 g | KIDNEY_TOTAL [2]: 2.5 g | KIDNEY_L [3]: 1.3 g | KIDNEY_R [3]: 1.3 g | KIDNEY_TOTAL [3]: 2.7 g | KIDNEY_L [4]: 1.6 g | KIDNEY_R [4]: 1.6 g | KIDNEY_TOTAL [4]: 3.2 g | LIVER [2]: 13.2 g | LIVER [3]: 14.6 g | LIVER [4]: 17.7 g | A/G [2]: 1.6 | ALP [2]: 836.8 IU/L | ALT [2]: 30.8 IU/L | AST [2]: 58.4 IU/L | BUN [2]: 18.4 mg/dL | CRE [2]: 0.4 mg/dL | Ca [2]: 10.2 mg/dL | Cl [2]: 103.8 meq/L | DBIL [2]: 0.064 mg/dL | GLC [2]: 195.6 mg/dL | IP [2]: 7.3 mg/dL | K [2]: 4.8 meq/L | LDH [2]: 74.6 IU/L | Na [2]: 140 meq/L | PL [2]: 153.4 mg/dL | RALB [2]: 3.7 g/dL | TBIL [2]: 0.3 mg/dL | TC [2]: 74.2 mg/dL | TG [2]: 129.4 mg/dL | TP [2]: 6 g/dL | gamma-GTP [2]: 2 IU/L | A/G [3]: 2.3 | ALP [3]: 758.4 IU/L | ALT [3]: 32 IU/L | AST [3]: 62 IU/L | BUN [3]: 19.8 mg/dL | CRE [3]: 0.5 mg/dL | Ca [3]: 10.7 mg/dL | Cl [3]: 105.6 meq/L | DBIL [3]: 0.052 mg/dL | GLC [3]: 196.2 mg/dL | IP [3]: 6.8 mg/dL | K [3]: 4.7 meq/L | LDH [3]: 68.6 IU/L | Na [3]: 142 meq/L | PL [3]: 146.2 mg/dL | RALB [3]: 4.1 g/dL | TBIL [3]: 0.3 mg/dL | TC [3]: 68.8 mg/dL | TG [3]: 111.6 mg/dL | TP [3]: 5.8 g/dL | gamma-GTP [3]: 1.4 IU/L | A/G [4]: 1.8 | ALP [4]: 523.4 IU/L | ALT [4]: 31.6 IU/L | AST [4]: 55.6 IU/L | BUN [4]: 21.2 mg/dL | CRE [4]: 0.6 mg/dL | Ca [4]: 10.2 mg/dL | Cl [4]: 104.4 meq/L | DBIL [4]: 0.02 mg/dL | GLC [4]: 199.4 mg/dL | IP [4]: 6 mg/dL | K [4]: 4.6 meq/L | LDH [4]: 74.8 IU/L | Na [4]: 140.4 meq/L | PL [4]: 141.2 mg/dL | RALB [4]: 4 g/dL | TBIL [4]: 0.3 mg/dL | TC [4]: 69 mg/dL | TG [4]: 157.2 mg/dL | TP [4]: 6.2 g/dL | gamma-GTP [4]: 1.8 IU/L | TERMINAL_BW [5]: 240.4 g | APTT [5]: 17.3 s | Bas [5]: 0% | Eos [5]: 1.6% | Fbg [5]: 217.6 mg/dL | Hb [5]: 14.2 g/dL | Ht [5]: 42.2% | Lym [5]: 75% | MCH [5]: 21 pg | MCHC [5]: 33.7% | MCV [5]: 62.3 fL | Mono [5]: 6.6% | Neu [5]: 17.4% | PT [5]: 11.5 s | Plat [5]: 130.1 x10_4/uL | RBC [5]: 677.6 x10_4/ul | Ret [5]: 9.8% | WBC [5]: 94.2 x10_2/uL | KIDNEY_L [5]: 1.1 g | KIDNEY_R [5]: 1.1 g | KIDNEY_TOTAL [5]: 2.2 g | LIVER [5]: 12.2 g | A/G [5]: 1.8 | ALP [5]: 919.8 IU/L | ALT [5]: 34.4 IU/L | AST [5]: 60 IU/L | BUN [5]: 18 mg/dL | CRE [5]: 0.5 mg/dL | Ca [5]: 10.7 mg/dL | Cl [5]: 105.4 meq/L | DBIL [5]: 0.008 mg/dL | GLC [5]: 190.8 mg/dL | IP [5]: 7.2 mg/dL | K [5]: 4.6 meq/L | LDH [5]: 84 IU/L | Na [5]: 141.2 meq/L | PL [5]: 152.6 mg/dL | RALB [5]: 3.6 g/dL | TBIL [5]: 0.2 mg/dL | TC [5]: 80 mg/dL | TG [5]: 100.4 mg/dL | TP [5]: 5.6 g/dL | gamma-GTP [5]: 2 IU/L | TERMINAL_BW [6]: 280.6 g | TERMINAL_BW [7]: 330.7 g | TERMINAL_BW [8]: 406.9 g | APTT [6]: 16.9 s | Bas [6]: 0% | Eos [6]: 1% | Fbg [6]: 223.4 mg/dL | Hb [6]: 13.9 g/dL | Ht [6]: 41.1% | Lym [6]: 71% | MCH [6]: 21.2 pg | MCHC [6]: 34% | MCV [6]: 62.5 fL | Mono [6]: 9.4% | Neu [6]: 18.8% | PT [6]: 11.5 s | Plat [6]: 132.9 x10_4/uL | RBC [6]: 657.4 x10_4/ul | Ret [6]: 5% | WBC [6]: 131.2 x10_2/uL | APTT [7]: 16.8 s | Bas [7]: 0% | Eos [7]: 1.2% | Fbg [7]: 223 mg/dL | Hb [7]: 14.9 g/dL | Ht [7]: 43.6% | Lym [7]: 76.4% | MCH [7]: 20.7 pg | MCHC [7]: 34.1% | MCV [7]: 60.6 fL | Mono [7]: 4% | Neu [7]: 18% | PT [7]: 11.8 s | Plat [7]: 125.2 x10_4/uL | RBC [7]: 720.8 x10_4/ul | Ret [7]: 4.5% | WBC [7]: 124.4 x10_2/uL | APTT [8]: 17.4 s | Bas [8]: 0% | Eos [8]: 1.4% | Fbg [8]: 234.8 mg/dL | Hb [8]: 15.5 g/dL | Ht [8]: 45.4% | Lym [8]: 74% | MCH [8]: 19.8 pg | MCHC [8]: 34.2% | MCV [8]: 57.7 fL | Mono [8]: 6% | Neu [8]: 19.2% | PT [8]: 11.7 s | Plat [8]: 123.5 x10_4/uL | RBC [8]: 785.8 x10_4/ul | Ret [8]: 5.4% | WBC [8]: 154 x10_2/uL | KIDNEY_L [6]: 1.2 g | KIDNEY_R [6]: 1.2 g | KIDNEY_TOTAL [6]: 2.4 g | KIDNEY_L [7]: 1.4 g | KIDNEY_R [7]: 1.4 g | KIDNEY_TOTAL [7]: 2.7 g | KIDNEY_L [8]: 1.5 g | KIDNEY_R [8]: 1.6 g | KIDNEY_TOTAL [8]: 3.1 g | LIVER [6]: 13.8 g | LIVER [7]: 15 g | LIVER [8]: 17.7 g | A/G [6]: 1.6 | ALP [6]: 859.6 IU/L | ALT [6]: 31.8 IU/L | AST [6]: 57.2 IU/L | BUN [6]: 20 mg/dL | CRE [6]: 0.4 mg/dL | Ca [6]: 10.4 mg/dL | Cl [6]: 103.2 meq/L | DBIL [6]: 0.078 mg/dL | GLC [6]: 197.2 mg/dL | IP [6]: 6.8 mg/dL | K [6]: 5 meq/L | LDH [6]: 95.2 IU/L | Na [6]: 139.2 meq/L | PL [6]: 143.6 mg/dL | RALB [6]: 3.6 g/dL | TBIL [6]: 0.3 mg/dL | TC [6]: 71.8 mg/dL | TG [6]: 119.6 mg/dL | TP [6]: 5.9 g/dL | gamma-GTP [6]: 2 IU/L | A/G [7]: 2.3 | ALP [7]: 705.8 IU/L
